The values below come from ChEMBL document CHEMBL2434862, “4-Phenylbutyric acid protects against neuronal cell death by primarily acting as a chemical chaperone rather than histone deacetylase inhibitor” (Bioorg Med Chem Lett, 2013).

Active and inactive are the calls of the source. The calls are words filed in the database; no cut-off is given here.

Assay [1] can be described thus: Chemical chaperone activity assessed as suppression of alpha-lactalbumin-bovine serum albumin aggregation at 3 mM by turbidity assay. It counts as functional.
Assay [2] has as its target Histone deacetylase (Homo sapiens) (UniProt Q13547+O15379+Q9UBN7+Q92769+Q9UQL6+Q8WUI4+Q9BY41+Q96DB2+P56524+Q9UKV0+Q969S8). The following applies: SH-SY5Y, at 3 mM.
Description: Inhibition of HDAC in human SH-SY5Y cells under ER stress assessed as acetylated H3 levels at 3 mM after 48 hrs by Western blot analysis in presence of tunicamycin

Consider `O=C(O)CCCc1ccccc1`, for which the outcome in assay [1] was Active. In assay [2], the inhibition result is “Active”.

For the compound `O=C(O)CCCc1ccc([N+](=O)[O-])cc1`, the inhibition result in assay [2] is “Active”.

For the compound `COc1ccc(CCCC(=O)O)cc1`, the inhibition result in assay [2] is “Active”.
